Experimental data from US20060069132A1, “Azolecarboxamide herbicides” (priority 2004, published 2006).

Key:
barnyardgrass [1] = assay: Test B pre-/postemergence herbicide test; assay type: in vivo, Echinochloa crus-galli; conditions: for Plant response rating (0 to 100 scale), Barnyardgrass: 0 is no effect, preemergence; for Barnyardgrass plant response rating: postemergence
Method in brief: (§1)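 Herbicidal effect was judged by eye on a 0–100 scale after plants stood 13 to 15 days in the greenhouse following pre- or postemergence treatment with surfactant-containing formulations.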

Surinam grass = assay: Test B pre-/postemergence herbicide test; assay type: in vivo, Urochloa decumbens; conditions: for Plant response rating (0 to 100 scale), Surinam Grass: 0 is no effect, 100 is complete control, preemergence; for Surinam Grass plant response rating: scale 0 (no effect) to 100 (complete control)
Method in brief: (§2)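 Pre: seeds sown, then sprayed. Post: 1–4-leaf plants (2–18 cm) sprayed at the same time. Paddy: flooded, treated at 2-leaf stage. Formulation: non-phytotoxic solvent with surfactant. Greenhouse 13–15 days; visual 0–100 score relative to controls.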

cocklebur = assay: Test B pre-/postemergence herbicide test; assay type: in vivo, Xanthium strumarium; conditions: for Plant response rating (0 to 100 scale), Cocklebur: 0 is no effect, preemergence; for Cocklebur plant response rating: postemergence
Method in brief: as §1

corn = assay: Test B pre-/postemergence herbicide test; assay type: in vivo, Zea mays; conditions: for Plant response rating (0 to 100 scale), Corn: 0 is no effect, preemergence; for Corn plant response rating: postemergence
Method in brief: as §2

large crabgrass = assay: Test B pre-/postemergence herbicide test; assay type: in vivo, Digitaria sanguinalis; conditions: for Plant response rating (0 to 100 scale), Crabgrass, Large: 0 is no effect, preemergence; for Crabgrass, Large plant response rating: postemergence
Method in brief: as §2

giant foxtail = assay: Test B pre-/postemergence herbicide test; assay type: in vivo, Setaria faberi; conditions: for Plant response rating (0 to 100 scale), Foxtail, Giant: 0 is no effect, preemergence; for Foxtail, Giant plant response rating: postemergence
Method in brief: as §2

lambsquarters = assay: Test B pre-/postemergence herbicide test; assay type: in vivo, Chenopodium album; conditions: for Plant response rating (0 to 100 scale), Lambsquarters: 0 is no effect, 100 is complete control, preemergence; for Lambsquarters plant response rating: scale 0 (no effect) to 100 (complete control)
Method in brief: as §2

morningglory = assay: Test B pre-/postemergence herbicide test; assay type: in vivo, Ipomoea coccinea; conditions: for Plant response rating (0 to 100 scale), Morningglory: 0 is no effect, 100 is complete control, preemergence; for Morningglory plant response rating: scale 0 (no effect) to 100 (complete control)
Method in brief: as §1

pigweed = assay: Test B pre-/postemergence herbicide test; assay type: in vivo, Amaranthus retroflexus; conditions: for Plant response rating (0 to 100 scale), Pigweed: 0 is no effect, 100 is complete control, preemergence; for Pigweed plant response rating: scale 0 (no effect) to 100 (complete control)
Method in brief: as §2

velvetleaf = assay: Test B pre-/postemergence herbicide test; assay type: in vivo, Abutilon theophrasti; conditions: for Plant response rating (0 to 100 scale), Velvetleaf: 0 is no effect, 100 is complete control, preemergence; for Velvetleaf plant response rating: scale 0 (no effect) to 100 (complete control)
Method in brief: as §2

blackgrass = assay: Test B postemergence herbicide test; assay type: in vivo, Alopecurus myosuroides; conditions: postemergence
Method in brief: (§3)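 Treated at 2-leaf (paddy) or 1–4-leaf, 2–18 cm (postemergence); greenhouse 13–15 d; visual score vs control, 0 none to 100 complete control; dash = not tested.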

wheat = assay: Test B postemergence herbicide test; assay type: in vivo, Triticum aestivum; design: key to Wheat plant response rating: 0 = no effect, 100 = complete control
Method in brief: (§4)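 Visual ratings, 0 (no effect) to 100 (complete control), made versus controls after 13–15 d greenhouse. Paddy plants treated at 2-leaf stage; postemergence plants at 1- to 4-leaf stage, 2–18 cm tall.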

wild oat = assay: Test B postemergence herbicide test; assay type: in vivo, Avena fatua; conditions: scale 0 (no effect) to 100 (complete control)
Method in brief: as §4

rice = assay: Test B flooded paddy test; assay type: in vivo, Oryza sativa; conditions: 1000 g ai/ha, scale 0 to 100 (0 no effect, 100 complete control)
Method in brief: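 Plants grow to 1- to 4-leaf stage (2–18 cm) for postemergence spraying, or to 2-leaf stage for the paddy test. Formulated compound is applied. Greenhouse holding lasts 13–15 days. Response is scored visually relative to controls, 0 no effect to 100 complete control; a dash means no result.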

[2] = test system: small flower umbrella sedge; assay: Test B flooded paddy test; assay type: in vivo, Cyperus difformis; conditions: 1000 g ai/ha, scale 0 to 100 (0 no effect, 100 complete control)
Method in brief: as §3

ducksalad = assay: Test B flooded paddy test; assay type: in vivo, Heteranthera limosa; conditions: 1000 g ai/ha, scale 0 to 100 (0 no effect, 100 complete control)
Method in brief: as §3

barnyardgrass [3] = assay: Test B flooded paddy test; assay type: in vivo, Echinochloa crus-galli; conditions: 1000 g ai/ha, scale 0 to 100 (0 no effect, 100 complete control)
Method in brief: as §3

[4] = 125 g ai/ha, 100 is complete control
[5] = 125 g ai/ha, visual rating, scale 0 (no effect) to 100 (complete control)
[6] = 500 g ai/ha, scale 0 to 100, 0 is no effect, 100 is complete control
[7] = 125 g ai/ha, visual rating, postemergence
[8] = 125 g ai/ha, visual rating, scale 0 (no effect) to 100 (complete control), postemergence
[9] = 500 g ai/ha, scale 0 to 100, 0 no effect, 100 complete control, preemergence
[10] = Postemergence, 500 g ai/ha, scale 0 (no effect) to 100 (complete control)

CCOC(=O)c1ccc(F)c(NC(=O)c2nn(C(C)(C)CC)nc2CC)c1 [Compound 373]
Plant response rating (0 to 100 scale), Barnyardgrass (barnyardgrass [1]; [4]): 0
Barnyardgrass plant response rating (barnyardgrass [1]; [5]): 10
Barnyardgrass plant response rating (barnyardgrass [1]; [6]): 20
Plant response rating (0 to 100 scale), Surinam Grass (Surinam grass; 125 g ai/ha): 0
Surinam Grass plant response rating (Surinam grass; [7]): 10
Surinam Grass plant response rating (Surinam grass; Postemergence, 500 g ai/ha): 20
Plant response rating (0 to 100 scale), Cocklebur (cocklebur; [4]): 0
Cocklebur plant response rating (cocklebur; [5]): 10
Cocklebur plant response rating (cocklebur; [6]): 30
Plant response rating (0 to 100 scale), Corn (corn; [4]): 0
Corn plant response rating (corn; [5]): 0
Corn plant response rating (corn; [6]): 20
Plant response rating (0 to 100 scale), Crabgrass, Large (large crabgrass; [4]): 0
Crabgrass, Large plant response rating (large crabgrass; [5]): 10
Crabgrass, Large plant response rating (large crabgrass; [6]): 10
Plant response rating (0 to 100 scale), Foxtail, Giant (giant foxtail; [4]): 0
Foxtail, Giant plant response rating (giant foxtail; [5]): 20
Foxtail, Giant plant response rating (giant foxtail; [6]): 30
Plant response rating (0 to 100 scale), Lambsquarters (lambsquarters; 125 g ai/ha): 0
Lambsquarters plant response rating (lambsquarters; [7]): 20
Lambsquarters plant response rating (lambsquarters; Postemergence, 500 g ai/ha): 30
Plant response rating (0 to 100 scale), Morningglory (morningglory; 125 g ai/ha): 0
Morningglory plant response rating (morningglory; [7]): 20
Morningglory plant response rating (morningglory; Postemergence, 500 g ai/ha): 20
Plant response rating (0 to 100 scale), Pigweed (pigweed; 125 g ai/ha): 0
Pigweed plant response rating (pigweed; [7]): 50
Pigweed plant response rating (pigweed; Postemergence, 500 g ai/ha): 70
Plant response rating (0 to 100 scale), Velvetleaf (velvetleaf; 125 g ai/ha): 0
Velvetleaf plant response rating (velvetleaf; [7]): 20
Velvetleaf plant response rating (velvetleaf; Postemergence, 500 g ai/ha): 30
Blackgrass plant response rating (blackgrass; [5]): 0
Blackgrass plant response rating (blackgrass; [6]): 10
Wheat plant response rating (wheat; [8]): 0
Wheat plant response rating (wheat; [9]): 0
Wheat plant response rating (wheat; [10]): 10
Oat, Wild plant response rating (wild oat; [7]): 10
Oat, Wild plant response rating (wild oat; Postemergence, 500 g ai/ha): 30
Rice plant response rating (rice): 0
Sedge, Umbrella plant response rating [2]: 20
Ducksalad plant response rating (ducksalad): 0
Barnyardgrass plant response rating (barnyardgrass [3]): 20

CCNC(=O)c1ccc(F)c(NC(=O)c2nn(C(C)(C)C)nc2C)c1 [Compound 377]
Plant response rating (0 to 100 scale), Barnyardgrass (barnyardgrass [1]; [4]): 0
Barnyardgrass plant response rating (barnyardgrass [1]; [5]): 0
Barnyardgrass plant response rating (barnyardgrass [1]; [6]): 0
Plant response rating (0 to 100 scale), Surinam Grass (Surinam grass; 125 g ai/ha): 0
Surinam Grass plant response rating (Surinam grass; [7]): 0
Surinam Grass plant response rating (Surinam grass; Postemergence, 500 g ai/ha): 10
Plant response rating (0 to 100 scale), Cocklebur (cocklebur; [4]): 0
Cocklebur plant response rating (cocklebur; [5]): 0
Cocklebur plant response rating (cocklebur; [6]): 0
Plant response rating (0 to 100 scale), Corn (corn; [4]): 0
Corn plant response rating (corn; [5]): 0
Corn plant response rating (corn; [6]): 10
Plant response rating (0 to 100 scale), Crabgrass, Large (large crabgrass; [4]): 20
Crabgrass, Large plant response rating (large crabgrass; [5]): 0
Crabgrass, Large plant response rating (large crabgrass; [6]): 0
Plant response rating (0 to 100 scale), Foxtail, Giant (giant foxtail; [4]): 0
Foxtail, Giant plant response rating (giant foxtail; [5]): 0
Foxtail, Giant plant response rating (giant foxtail; [6]): 10
Plant response rating (0 to 100 scale), Lambsquarters (lambsquarters; 125 g ai/ha): 0
Lambsquarters plant response rating (lambsquarters; [7]): 60
Lambsquarters plant response rating (lambsquarters; Postemergence, 500 g ai/ha): 70
Plant response rating (0 to 100 scale), Morningglory (morningglory; 125 g ai/ha): 0
Morningglory plant response rating (morningglory; [7]): 0
Morningglory plant response rating (morningglory; Postemergence, 500 g ai/ha): 60
Plant response rating (0 to 100 scale), Pigweed (pigweed; 125 g ai/ha): 60
Pigweed plant response rating (pigweed; [7]): 30
Plant response rating (0 to 100 scale), Velvetleaf (velvetleaf; 125 g ai/ha): 0
Velvetleaf plant response rating (velvetleaf; [7]): 20
Velvetleaf plant response rating (velvetleaf; Postemergence, 500 g ai/ha): 40
Blackgrass plant response rating (blackgrass; [5]): 0
Blackgrass plant response rating (blackgrass; [6]): 0
Wheat plant response rating (wheat; [8]): 0
Wheat plant response rating (wheat; [9]): 20
Wheat plant response rating (wheat; [10]): 0
Oat, Wild plant response rating (wild oat; [7]): 0
Oat, Wild plant response rating (wild oat; Postemergence, 500 g ai/ha): 0
Rice plant response rating (rice): 40
Sedge, Umbrella plant response rating [2]: 80
Ducksalad plant response rating (ducksalad): 40
Barnyardgrass plant response rating (barnyardgrass [3]): 30
